Experimental findings from ChEMBL document CHEMBL4145454, “Discovery of 2,4-diarylaminopyrimidines bearing a resorcinol motif as novel ALK inhibitors to overcome the G1202R resistant mutation” (Eur J Med Chem, 2018) are described below.

A word on the IC50: it is the concentration at which inhibition is half-maximal.

The source made the active and inactive calls. No cut-off for these calls is given here.

The test system of assay [1] is BaF3. Briefly: cells. Particulars: Mus musculus, BaF3, 72 h.
Description: Antiproliferative activity against mouse BAF3 cells harboring CD74-ROS1 after 72 hrs by SRB or CCK8 assay
Assay [2] concerns the target ALK tyrosine kinase receptor (Homo sapiens, UniProt Q9UM73, R1275Q).
Assay [3] has as its target ALK tyrosine kinase receptor (Homo sapiens, UniProt Q9UM73, G1202R).
Assay [4] has as its system NCI-H3122. As to the kind of experiment: Induction of apoptosis in human NCI-H3122 cells at 20 to 80 nM after 48 hrs by Annexin V-FITC/propidium iodide staining based flow cytometry. The class given is functional, cell-based.
Assay [5] deals with ALK tyrosine kinase receptor (Homo sapiens, UniProt Q9UM73, L1152R).
Assay [6] deals with NCI-H3122. Briefly: cells. The note with it: Homo sapiens, NCI-H3122, 72 h.
Description: Antiproliferative activity against human NCI-H3122 cells after 72 hrs by SRB or CCK8 assay
Assay [7] relates to HCC78. Briefly: cells. The note with it: Homo sapiens, HCC78, 72 h.
Description: Antiproliferative activity against human HCC78 cells harboring SLC34A2-ROS1 after 72 hrs by SRB or CCK8 assay
Assay [8] concerns the target ALK tyrosine kinase receptor (Homo sapiens, UniProt Q9UM73, S1206Y).
The subject of assay [9] is KARPAS-299. Briefly: cells. The note with it: Homo sapiens, KARPAS-299, 72 h.
Description: Antiproliferative activity against human KARPAS299 cells harboring NPM-ALK after 72 hrs by SRB or CCK8 assay
Assay [10] relates to SU-DHL-1. Briefly: cells. The note with it: Homo sapiens, SU-DHL-1, 72 h.
Description: Antiproliferative activity against human SU-DHL1 cells harboring NPM-ALK after 72 hrs by SRB or CCK8 assay
Assay [11] relates to BaF3. As to the kind of experiment: cells. Particulars: Mus musculus, BaF3, 72 h. This is another data set of the same source.
The test system of assay [12] is BaF3. Briefly: cells. Particulars: Mus musculus, BaF3, 72 h. This is another data set of the same source.
Description: Antiproliferative activity against mouse BAF3 cells harboring EML4-ALK after 72 hrs by SRB or CCK8 assay
Assay [13] deals with SU-DHL-1. As to the kind of experiment: Induction of apoptosis in human SU-DHL1 cells at 20 to 80 nM after 48 hrs by Annexin V-FITC/propidium iodide staining based flow cytometry. In kind it is functional, cell-based. (A flow cytometer gives signals particle by particle.)
For assay [14], the system named is BaF3. Briefly: cells. Particulars: Mus musculus, BaF3, 72 h. The source holds these as a separate data set.
Description: Antiproliferative activity against IL3-stimulated mouse BAF3 cells after 72 hrs by SRB or CCK8 assay
In assay [15] the test system is BaF3. Briefly: cells. The note with it: Mus musculus, BaF3, 72 h. This is another data set of the same source.
Description: Antiproliferative activity against mouse BAF3 cells harboring CD74-ROS1 G2032R mutant after 72 hrs by SRB or CCK8 assay
The subject of assay [16] is BaF3. As to the kind of experiment: cells. Particulars: Mus musculus, BaF3, 72 h. The source holds these as a separate data set.
Assay [17] addresses ALK tyrosine kinase receptor (Homo sapiens, UniProt Q9UM73, T1151M).
Assay [18] deals with T1, ALK tyrosine kinase receptor (Homo sapiens, UniProt Q9UM73).
In assay [19] the target is T1, ALK tyrosine kinase receptor. Particulars: NCI-H3122, 20 to 200 nM.
Description: Inhibition of ALK in human NCI-H3122 cells assessed as reduction in ERK phosphorylation at T202//Y204 residues at 20 to 200 nM after 1 hr by Western blot analysis
The target is the same in assay [20]. The note with it: NCI-H3122, 20 to 200 nM. The source holds these as a separate data set.
Description: Inhibition of ALK phosphorylation at Y1278 residue in human NCI-H3122 cells at 20 to 200 nM after 1 hr by Western blot analysis
The target is the same in assay [21]. The note with it: 20 to 200 nM.
Description: Inhibition of ALK in human SU-DHL1 cells assessed as reduction in STAT3 phosphorylation at Y705 residue at 20 to 200 nM after 1 hr by Western blot analysis
The target is the same in assay [22]. The note with it: 20 to 200 nM. This is another data set of the same source.
Description: Inhibition of ALK in human SU-DHL1 cells assessed as reduction in Akt phosphorylation at S473 residue at 20 to 200 nM after 1 hr by Western blot analysis
Assay [23] has the same target. Particulars: 20 to 200 nM. This is another data set of the same source.
Description: Inhibition of ALK phosphorylation at Y1278 residue in human SU-DHL1 cells at 20 to 200 nM after 1 hr by Western blot analysis
For assay [24] the target is unchanged. Particulars: NCI-H3122, 20 to 200 nM. The source holds these as a separate data set.
Description: Inhibition of ALK in human NCI-H3122 cells assessed as reduction in STAT3 phosphorylation at Y705 residue at 20 to 200 nM after 1 hr by Western blot analysis
For assay [25] the target is unchanged. Particulars: 20 to 200 nM. This is another data set of the same source.
Description: Inhibition of ALK in human SU-DHL1 cells assessed as reduction in ERK phosphorylation at T202//Y204 residues at 20 to 200 nM after 1 hr by Western blot analysis
For assay [26] the target is unchanged. The note with it: NCI-H3122, 20 to 200 nM. The source holds these as a separate data set.
Description: Inhibition of ALK in human NCI-H3122 cells assessed as reduction in Akt phosphorylation at S473 residue at 20 to 200 nM after 1 hr by Western blot analysis

Take `COc1ccc(NC(=O)CNC(=O)c2cc(C(C)C)c(O)cc2O)cc1Nc1ncc(Cl)c(Nc2ccccc2S(=O)(=O)C(C)C)n1`: the concentration for half-maximal inhibition (IC50) in [1] was 0.2 nM; in assay [2] it was 2.7 nM; in assay [3] it was 1.8 nM; in [5], 10.6 nM; in assay [6], 6.9 nM; in assay [7], < 1.5 nM. In addition, the IC50 in assay [8] was 5.1 nM; in assay [9], 10.4 nM; in assay [10] it was 4.8 nM; in assay [11] it was < 1.5 nM; in [12], < 1.5 nM; in [14], > 1000 nM. Also, the 50% inhibitory concentration (IC50) in assay [15] is 0.2 nM; in [16] it was < 1.5 nM; in [17], 2.2 nM; in assay [18], 1.7 nM. In addition, the result in assay [4] and in assay [13] was Active.

As to `COc1ccc(NC(=O)CNC(=O)c2ccc(O)c(C(C)C)c2)cc1Nc1ncc(Cl)c(Nc2ccccc2S(=O)(=O)C(C)C)n1`, the values for the half-inhibitory concentration (IC50) in [3], in [6] and in assay [18] were 6.1 nM, 9.1 nM and 1.4 nM, respectively.

`CC(C)c1cc(C(=O)NCC(=O)Nc2cccc(Nc3ncc(Cl)c(Nc4ccccc4S(=O)(=O)C(C)C)n3)c2)c(O)cc1O`: the results for the half-inhibitory concentration (IC50) in assay [6] and in assay [18] were 84 nM and 0.8 nM, respectively.

Regarding `COc1ccc(NC(=O)CNC(=O)c2cc(C(C)C)c(O)cc2O)cc1Nc1ncnc(Nc2ccccc2S(=O)(=O)C(C)C)n1`, the IC50 came to 64 nM in assay [6] and 1.3 nM in [18].

For `COc1ccc(NC(=O)CNC(=O)c2cc(C(C)C)c(O)cc2O)cc1Nc1ncc(Cl)c(Nc2ccccc2P(C)(C)=O)n1`, the IC50 in assay [3] is 7.8 nM; in [6] it was 99 nM; in assay [18], 1.5 nM.

As for `C[C@H]1Oc2cc(cnc2N)-c2c(nn(C)c2C#N)CN(C)C(=O)c2ccc(F)cc21` [LORLATINIB], the 50% inhibitory concentration (IC50) in assay [1] was found to be 1.2 nM; in [6] it was 7.8 nM; in [7] it was 357 nM; in assay [9], 3 nM; in assay [10], 4.9 nM; in [11], 200 nM. In addition, the half-inhibitory concentration (IC50) is 2.9 nM in assay [12], > 1000 nM in assay [14], 262 nM in [15] and 42.4 nM in assay [16].

In the case of `CC(C)c1cc(C(=O)NCC(=O)Nc2cccc(Nc3ncc(Cl)c(Nc4cc(S(=O)(=O)C(C)C)nn4C)n3)c2)c(O)cc1O`, the IC50 is > 1000 nM in assay [6] and 262 nM in assay [18].

On to `Cc1cc(Nc2ncc(Cl)c(Nc3ccccc3S(=O)(=O)C(C)C)n2)c(OC(C)C)cc1C1CCNCC1` [CERITINIB], for which the 50% inhibitory concentration (IC50) was 234 nM in [1]; 96 nM in assay [6]; > 1000 nM in [7]; 84 nM in [9]; 122 nM in assay [10]; 726 nM in assay [11]. The half-maximal inhibitory concentration (IC50) in assay [12] was 10.7 nM; in assay [14] it was > 1000 nM; in assay [15] it was > 1000 nM; in [16] it was 54.9 nM. Moreover, the inhibition result in assay [19], in assay [20], in assay [21], in assay [22], in assay [23] and in assay [24] was “Active” in each case. Moreover, the inhibition result in [25] and in assay [26] was “Active” in each case.

Take `COc1ccc(NC(=O)CNC(=O)c2cc(C(C)C)ccc2O)cc1Nc1ncc(Cl)c(Nc2ccccc2S(=O)(=O)C(C)C)n1`: the IC50 amounted to 15.3 nM in [3], 4 nM in assay [6] and 0.7 nM in [18].

Take `COc1ccc(NC(=O)CNC(=O)c2cc(C(C)C)c(O)cc2OC)cc1Nc1ncc(Cl)c(Nc2ccccc2S(=O)(=O)C(C)C)n1`: the values for the IC50 in assay [6] and in [18] were 12.8 nM and 48 nM, respectively.

Regarding `COc1cc(OC)c(C(C)C)cc1C(=O)NCC(=O)Nc1cccc(Nc2ncc(Cl)c(Nc3ccccc3S(=O)(=O)C(C)C)n2)c1`, the IC50 in assay [6] and in assay [18] was > 1000 nM each time.

For `COc1ccc(NC(=O)CNC(=O)c2cc(C(C)C)c(OC)cc2O)cc1Nc1ncc(Cl)c(Nc2ccccc2S(=O)(=O)C(C)C)n1`, the IC50 in assay [6] was 13.7 nM; in [18], 10.5 nM.

As to `COc1ccc(NC(=O)C2(NC(=O)c3cc(C(C)C)c(O)cc3O)CC2)cc1Nc1ncc(Cl)c(Nc2ccccc2S(=O)(=O)C(C)C)n1`, the IC50 was determined as 254 nM in assay [6] and 130 nM in [18].

Turning to `CC(C)c1cc(C(=O)NCC(=O)Nc2ccc(F)c(Nc3ncc(Cl)c(Nc4ccccc4S(=O)(=O)C(C)C)n3)c2)c(O)cc1O`, the results for the IC50 in assay [3], in [6] and in [18] were 15.5 nM, 7.2 nM and 1 nM, respectively.

Regarding `COc1ccc(NC(=O)C(Cc2ccccc2)NC(=O)c2cc(C(C)C)c(O)cc2O)cc1Nc1ncc(Cl)c(Nc2ccccc2S(=O)(=O)C(C)C)n1` (stereo not given), the IC50 in assay [3] was 65 nM; in assay [6] it was 57 nM; in assay [18], 7.8 nM.

Take `COc1ccc(Nc2ncc(Cl)c(Nc3ccccc3S(=O)(=O)C(C)C)n2)cc1NC(=O)CNC(=O)c1cc(C(C)C)c(O)cc1O`: the IC50 is > 1000 nM in [6] and 2.6 nM in assay [18].

Turning to `COc1ccc(NC(=O)C(NC(=O)c2cc(C(C)C)c(O)cc2O)C(C)C)cc1Nc1ncc(Cl)c(Nc2ccccc2S(=O)(=O)C(C)C)n1` (stereo not given), the IC50 in assay [6] and in assay [18] was > 1000 nM throughout.

With `CC(C)Oc1ccc(NC(=O)CNC(=O)c2cc(C(C)C)c(O)cc2O)cc1Nc1nccc(Nc2ccccc2S(=O)(=O)C(C)C)n1`, the IC50 in assay [6] is 123 nM; in [18], 4.2 nM.

As to `COc1ccc(NC(=O)C(C)NC(=O)c2cc(C(C)C)c(O)cc2O)cc1Nc1ncc(Cl)c(Nc2ccccc2S(=O)(=O)C(C)C)n1` (stereo not given), the half-maximal inhibitory concentration (IC50) in [6] came out at 6.8 nM; in assay [18], 0.7 nM.

Regarding `CC(C)Oc1ccc(NC(=O)CNC(=O)c2cc(C(C)C)c(O)cc2O)cc1Nc1ncc(Cl)c(Nc2ccccc2S(=O)(=O)C(C)C)n1`, the IC50 in assay [6] came out at 69 nM; in assay [18] it was 3.3 nM.
